Laboratory results reported in patent US20120196828A1, “SENSITIZATION OF CANCER CELLS TO TREATMENT” (priority 2011, published 2012).
“And” between values parts separate entries of the source, which are not always exact repeats. Identical values can stand only once.

Tests used:
[1] = biological target: Receptor for Advanced Glycation End products (RAGE) / HMGB1 (Homo sapiens, UniProt Q15109); conditions: Rao et al. 2010; WO 2009/015183; cited from earlier work
[2] = test system: metastatic pancreatic cancer; conditions: patients with metastatic pancreatic cancer; ODSH 4 mg/kg bolus then 0.375 mg/kg/hr infusion
Protocol: Subjects included in the trial are: patients diagnosed with metastatic pancreatic cancer. […] See also, Burris, H. A., et al., 1997, J. Clin. Oncol. 15(6):2403-13. […] J. Clin. Oncol. 30(1):15-20. Subjects in each arm of the trial are evaluated for time to tumor progression, weight loss, pain control, six-month survival rates, and overall survival.
Subjects included in the trial are: patients diagnosed with metastatic pancreatic cancer.
Next, 50 subjects are then randomly assigned to one of two arms: either a control or a treatment group.

[3] = Body weight, deaths and clinical observations in the BxPC-3 xenograft study
Protocol: (§1) All experiments were conducted on female athymic nude mice (Hsd:Athymic Nude-Foxn1nu) supplied by Harlan (Indianapolis, Ind.). Mice were received at four weeks of age, 12-15 grams in weight, and were acclimated for seven days prior to handling. The mice were housed in microisolator cages (Lab Products, Seaford, Del.) and maintained under specific pathogen-free conditions. All procedures were carried out under appropriate institutional guidelines for animal care.
(§2) Seven days following inoculation, tumors were measured using calipers and tumor weight was calculated using the animal study management software, Study Director V.1.7.54 k (Study Log). See Britten C D, et al. Enhanced antitumor activity of 6-hydroxymethylacylfulvene in combination with irinotecan and 5-fluorouracil in the HT29 human colon tumor xenograft model. Cancer Res 59:1049-1053, 1999. […] Body weights were recorded when the mice were randomized and were taken twice weekly thereafter in conjunction with tumor measurements, on each of Days 1, 4, 8, 11, 15, 18, 22, 26, 30, 33, and 36.
(§3) The study was terminated when the vehicle control reached an endpoint of 1500 mg, on Day 36.

[4] = test system: BxPC-3 Human Pancreas Tumor Xenograft; assay: BxPC-3 human pancreas tumor xenograft model: tumor weight and tumor growth inhibition; format: in vivo, mouse
Protocol: Compounds tested in the experiment were as follows. […] A concentration of 4.8 mg/ml was formulated to deliver a 24 mg/kg dose at a 5 ml/kg dose volume when administered subcutaneously. […] Nab-paclitaxel was manufactured by Abraxis BioScience LLC (Bridgewater, N.J.) and diluted in a 0.9% NaCl solution to a concentration of 1.5 mg/ml to deliver 15 mg/kg, in a 10 ml/kg dose volume. All standard agent preparations were made fresh prior to their administration.
BxPC-3 cells were obtained and prepared as follows. The BxPC-3 pancreas tumor cell line was received from American Type Culture Collection (ATCC, Manassas, Va.). Cultures were maintained in RPMI 1640 medium (Hyclone, Logan, Utah) supplemented with 5% fetal bovine serum. The cells were housed in a 5% CO2 atmosphere. The cultures were expanded in tissue culture flasks at a 1:3 split ratio until a sufficient amount of cells were harvested.
as §1
BxPC-3 Human Pancreas Tumor Xenograft Model: Female athymic nude mice per treatment condition were inoculated subcutaneously in the right flank with 0.1 ml of a 50% RPMI 1640/50% Matrigel™ (BD Biosciences, Bedford, Mass.) mixture containing a suspension of BxPC-3 tumor cells (approximately 5×10^6 cells/mouse).
as §2, §3
Mean tumor growth inhibition (TGI) was calculated utilizing Formula A below (deaths were not included in the TGI calculations).
All statistical analyses in the xenograft study were performed with GraphPad Prism® v4 software.

anti-thrombin III = anti-thrombin III (Homo sapiens, UniProt P01008); conditions: cited from earlier work
[5] = test system: metastatic gastric cancer; conditions: patients with metastatic gastric cancer; ODSH with mDCF
Protocol: Subjects included in the trial are: patients diagnosed with metastatic gastric, including cancer at the gastroesophageal junction. […] Subjects in each arm of the trial are evaluated for time to tumor progression, weight loss, pain control, six-month survival rates, and overall survival.

[6] = ANOVA with Tukey's Multiple Comparison Test

Sequence of anti-thrombin III (P01008 33-464, species assumed): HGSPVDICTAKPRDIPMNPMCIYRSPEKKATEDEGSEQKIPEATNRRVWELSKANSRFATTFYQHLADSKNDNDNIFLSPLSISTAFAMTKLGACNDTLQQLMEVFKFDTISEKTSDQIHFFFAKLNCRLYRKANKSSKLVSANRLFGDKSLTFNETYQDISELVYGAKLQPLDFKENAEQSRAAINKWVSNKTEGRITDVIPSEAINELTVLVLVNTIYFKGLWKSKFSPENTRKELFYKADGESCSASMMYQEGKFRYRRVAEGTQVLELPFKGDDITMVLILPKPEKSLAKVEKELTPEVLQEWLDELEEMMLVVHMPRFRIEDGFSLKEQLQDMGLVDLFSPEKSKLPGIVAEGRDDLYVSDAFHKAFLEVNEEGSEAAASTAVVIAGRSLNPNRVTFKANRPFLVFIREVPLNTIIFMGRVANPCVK
Sequence of Receptor for Advanced Glycation End products (RAGE) / HMGB1 (Q15109 23-344 limits assumed, species assumed): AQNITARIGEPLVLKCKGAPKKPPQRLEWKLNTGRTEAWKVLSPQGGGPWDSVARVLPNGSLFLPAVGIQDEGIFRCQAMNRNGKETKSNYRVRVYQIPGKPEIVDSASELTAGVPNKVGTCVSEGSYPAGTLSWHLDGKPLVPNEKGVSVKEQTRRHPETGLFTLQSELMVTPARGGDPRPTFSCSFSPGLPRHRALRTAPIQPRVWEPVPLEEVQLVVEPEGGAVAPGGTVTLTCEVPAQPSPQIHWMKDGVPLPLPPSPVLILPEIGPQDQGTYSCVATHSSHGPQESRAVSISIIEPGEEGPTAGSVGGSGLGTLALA

## 2-O, 3-O desulfated heparin [ODSH]
[1]
  Binding of RAGE by HMGB1 and other RAGE ligands: inhibit binding
[2]
  Therapeutic benefit of addition of ODSH to chemotherapy in pancreatic cancer: therapeutic benefit
[3]; Day 1
  Day 1 Average Weight: 21.54 g
[3]; Day 4
  Day 4 Average Weight: 21.18 g
[3]; Day 4, vs starting weight
  Day 4 % Weight Loss or Gain: −1.67%
[3]; Day 8
  Day 8 Average Weight: 21.18 g
[3]; Day 8, vs starting weight
  Day 8 % Weight Loss or Gain: −1.67%
[3]; Day 11
  Day 11 Average Weight: 20.95 g
[3]; Day 11, vs starting weight
  Day 11 % Weight Loss or Gain: −2.74%
[3]; Day 15
  Day 15 Average Weight: 21.08 g
[3]; Day 15, vs starting weight
  Day 15 % Weight Loss or Gain: −2.14%
[3]; Day 18
  Day 18 Average Weight: 21.04 g
[3]; Day 18, vs starting weight
  Day 18 % Weight Loss or Gain: −2.32%
[3]; Day 22
  Day 22 Average Weight: 22.53 g
[3]; Day 22 (Table 12)
  Day 22 Average Weight: 21.56 g
[3]; Day 22 (Table 12), vs starting weight
  Day 22 % Weight Loss or Gain: 0.09%
[3]; Day 22, vs starting weight
  Day 22 % Weight Loss or Gain: 4.60%
[3]; Day 26 (Table 12)
  Day 26 Average Weight: 22.14 g
[3]; Day 26 (Table 12), vs starting weight
  Day 26 % Weight Loss or Gain: 2.79%
[3]; Day 30, vs starting weight, groups 3 and 5 switched regimen from Day 26
  Day 30 % Weight Loss or Gain: 4.92%
[3]; Day 30, groups 3 and 5 switched to gemcitabine + nab-paclitaxel regimen from Day 26
  Day 30 Average Weight: 22.60 g
[3]; Table 13 Day 26
  Day 26 Average Weight: 22.46 g
[3]; Table 13 Day 26, vs starting weight
  Day 26 % Weight Loss or Gain: 4.27%
[3]; athymic nude mice, dosing per Table 1
  Tolerability / toxicity of the regimen: well-tolerated
[3]; baseline body weight, female athymic nude mice, BxPC-3 xenograft study
  Starting Weight: 21.54 g
[3]; body weight of mice
  Maximum weight loss: 2.7%
[3]; mouse, in vivo
  Day bruising of the abdomens was first observed: 15 days
  Day bruising of the tails was first observed: 8 days
  Day by which the mice recovered their weight: ≤ 22 days
  Day on which maximum weight loss was reached: 11 days
  Day swelling of the tail was first observed: 11 days
[3]; of ten mice
  Mice demonstrating bruising on the tails or abdomen (site of injection): All ten
  Mice demonstrating swelling of the tail: One of the ten
[3]; total deaths on or before Day 26, N = 10 per group
  Deaths: 0
[3]; total deaths on or before Day 36, n = 10 per group
  Deaths: 0
[4]; [6]
  Difference in tumor weight on Day 26 compared to vehicle control: No significant difference
  Difference in tumor weight on Day 36 compared to vehicle control: No significant difference
[4]; Day 1 (randomization), group mean, dosing per Table 1
  Mean tumor weight, Day 1: 122.4 mg
[4]; Day 1 (randomization), group median, dosing per Table 1
  Median tumor weight, Day 1: 22.9 mg
[4]; Day 1 (randomization), individual mouse, dosing per Table 1 (ODSH 24, oxaliplatin 10, gemcitabine 80, nab-paclitaxel 15 mg/kg)
  Tumor weight, individual mouse, Day 1: 140 mg and 116 mg and 172 mg and 94 mg and 131 mg and 106 mg and 125 mg and 143 mg and 129 mg
[4]; Day 4, group mean, dosing per Table 1
  Mean tumor weight, Day 4: 134.0 mg
[4]; Day 4, group median, dosing per Table 1
  Median tumor weight, Day 4: 28.6 mg
[4]; Day 4, individual mouse, dosing per Table 1
  Tumor weight, individual mouse, Day 4: 162 mg and 98 mg and 110 mg and 141 mg and 97 mg and 181 mg and 135 mg and 130 mg and 144 mg and 133 mg
[4]; Day 8, group mean, dosing per Table 1
  Mean tumor weight, Day 8: 146.0 mg
[4]; Day 8, group median, dosing per Table 1
  Median tumor weight, Day 8: 40.4 mg
[4]; Day 8, individual mouse, dosing per Table 1
  Tumor weight, individual mouse, Day 8: 218 mg and 118 mg and 144 mg and 183 mg and 125 mg and 222 mg and 126 mg and 155 mg and 157 mg and 148 mg
[4]; Day 11, group mean, dosing per Table 1
  Mean tumor weight, Day 11: 187.6 mg
[4]; Day 11, group median, dosing per Table 1
  Median tumor weight, Day 11: 162.1 mg
[4]; Day 11, individual mouse, dosing per Table 1
  Tumor weight, individual mouse, Day 11: 149 mg and 288 mg and 142 mg and 175 mg and 243 mg and 146 mg and 252 mg and 137 mg and 140 mg and 203 mg
[4]; Day 15, group mean, dosing per Table 1
  Mean tumor weight, Day 15: 263.0 mg
[4]; Day 15, group median, dosing per Table 1
  Median tumor weight, Day 15: 250.0 mg
[4]; Day 15, individual mouse, dosing per Table 1
  Tumor weight, individual mouse, Day 15: 206 mg and 340 mg and 224 mg and 263 mg and 348 mg and 237 mg and 321 mg and 208 mg and 218 mg and 264 mg
[4]; Day 18, group mean, dosing per Table 1
  Mean tumor weight, Day 18: 338.5 mg
[4]; Day 18, group median, dosing per Table 1
  Median tumor weight, Day 18: 304.7 mg
[4]; Day 18, individual mouse, dosing per Table 1
  Tumor weight, individual mouse, Day 18: 278 mg (2×) and 489 mg and 291 mg and 288 mg and 419 mg and 256 mg and 415 mg and 318 mg and 352 mg
[4]; Day 22, group mean, dosing per Table 1
  Mean tumor weight, Day 22: 453.8 mg
[4]; Day 22, group median, dosing per Table 1
  Median tumor weight, Day 22: 425.4 mg
[4]; Day 22, individual mouse, dosing per Table 1
  Tumor weight, individual mouse, Day 22: 358 mg and 622 mg and 360 mg and 400 mg and 556 mg and 402 mg and 551 mg and 449 mg and 326 mg and 515 mg
[4]; Day 26, group mean, dosing per Table 1
  Mean tumor weight, Day 26: 616.2 mg
[4]; Day 26, group median, dosing per Table 1
  Median tumor weight, Day 26: 551.3 mg
[4]; Day 26, individual mouse, dosing per Table 1
  Tumor weight, individual mouse, Day 26: 509 mg and 894 mg and 478 mg and 529 mg and 770 mg and 573 mg and 724 mg and 524 mg and 394 mg and 766 mg
[4]; Day 26, mean ± Std Err, treatment administered until Day 26
  Day 26 Tumor Weight: 616.2 ± 50.9 mg
[4]; Day 26 vs Day 1, relative to vehicle control (Group 1), deaths not included
  Day 26 % TGI: 11.5% and 11.5 (10/10) %
[4]; Day 30, group mean of surviving mice, dosing per Table 1
  Mean tumor weight, Day 30: 882.3 mg
[4]; Day 30, group median, dosing per Table 1
  Median tumor weight, Day 30: 856.4 mg
[4]; Day 30, individual mouse, dosing per Table 1
  Tumor weight, individual mouse, Day 30: 697 mg and 1,083 mg and 756 mg and 893 mg and 1,201 mg and 820 mg and 945 mg and 764 mg and 555 mg and 1,109 mg
[4]; Day 33, group mean of surviving mice, dosing per Table 1
  Mean tumor weight, Day 33: 1,038.6 mg
[4]; Day 33, group median, dosing per Table 1
  Median tumor weight, Day 33: 979.8 mg
[4]; Day 33, individual mouse, dosing per Table 1
  Tumor weight, individual mouse, Day 33: 908 mg and 1,218 mg and 999 mg and 961 mg (2×) and 1,309 mg and 1,087 mg and 871 mg and 733 mg and 1,340 mg
[4]; Day 36, treatment administered until Day 35
  Day 36 Tumor Weight: 1270.1 ± 95.5 mg
[4]; Day 36, group median, dosing per Table 1
  Median tumor weight, Day 36: 1,151.5 mg
[4]; Day 36, individual mouse, dosing per Table 1
  Tumor weight, individual mouse, Day 36: 1,072 mg and 1,450 mg and 1,153 mg and 1,150 mg (2×) and 1,654 mg and 1,376 mg and 1,037 mg and 836 mg and 1,823 mg
[4]; Day 36 vs Day 1, relative to vehicle control (Group 1), deaths not included
  Day 36 % TGI: 18.2%
[4]; xenograft model of human pancreatic cancer
  Overall antitumor effect (summary statement): inhibits tumor growth to a similar extent as treatment with gemcitabine
anti-thrombin III
  Kd: ~339 µM
  Kd for anti-thrombin III: ~4000 µg/mL
[5]
  Therapeutic benefit of addition of ODSH to chemotherapy in gastric cancer: therapeutic benefit
